Test results reported in patent US6407142B1, “Use of stilbene derivatives substituted in position 3 as deodorant active agents in cosmetic compositions” (L'Oreal S.A., priority 1999, dated 2002).
Values after ≈ are worked out from the molar mass of the structure shown. Where two headings read alike, the source gives them in different places.

Assays:
[1] = In vitro test of inhibition of the evolution of odors on natural sweat (olfactory evaluation by jury of experts); design: species or system human; conditions: for average % of reduction in the unpleasantness of the odor (T18 h, T24 h) / average % of reduction in the odor intensity (T18 h, T24 h): 37° C.; for average % of reduction in the unpleasantness of the odor (T18 h, T24 h): hedonistic grade relative to control sweat; for average % of reduction in the odor intensity (T18 h, T24 h): relative to control sweat without deodorant agent; for deodorant efficacy (reduction in the intensity and unpleasantness of the odor), in words: natural sweat, for at least 24 h
Method: A test of inhibition of the evolution of odors was carried out on natural sweat. This test is carried out by adding the deodorant agent to fresh sweat, and then in carrying out an olfactory evaluation by means of a jury of experts after incubation at 37° C. for 18 hours and 24 hours. Thus, underarm sweat was collected in a sauna from several human models and combined to form a sample of sweat. In order to obtain the characteristic nauseating odor of sweat, before introducing the active substance, this sample of sweat was incubated for 18 hours at a temperature of 37° C. […] The active substance was then introduced into each of the flasks to be tested.
1) After incubation for 18 hours, the odor of each flask was evaluated.
The odor was evaluated on the basis of 2 criteria:
(a)—overall intensity (grading from 0 to 4):
(b)—the hedonistic assessment (grading from 0 to 6):
2) The flasks were reincubated in an oven at 37° C. for 6 h, the total desired incubation time being 24 h. Evaluation of the odor of each flask was then repeated as before.

Aspergillus niger = test: Microbiostatic activity (MIC) by dilutions in agar medium; type: cell-based
Method: (§1) Each of the 3 compounds was presented in the form of an ethanolic solution. 100 μl of the ethanolic solution were added to 1.9 ml of agar culture heated beyond the melting point to 45° C. (medium chosen as a function of the nutrient requirements of the test strain). After stirring with a Vortex machine, successive dilutions, in geometrical progression by a factor of 2, of the solution obtained were carried out using agar culture medium heated beyond its melting point to 45° C. 1 ml of each dilution was introduced into the wells of a microplate (flask, 24 wells). Four μl of microbial suspension were placed at the surface of the agar medium. Two control wells were also prepared: 100 μl H2O+1.9 ml of culture medium (growth control), […] ethanol+1.9 ml of culture medium (control of non-toxicity of the ethanol diluted to 1/20).
(§2) After incubation under conditions (temperature, atmosphere and duration) dependent on the test strain, the minimum inhibitory concentration (MIC) was given by the lowest concentration of product which inhibited the microbial growth. The results, shown below, are expressed in μg/ml.
(§3) For the control cupules (H2O or ethanol), the observation of microbial growth made it possible to exclude the presence of a placebo effect.

Corynebacterium xerosis = test: as above; type: cell-based; conditions: for MIC: Corynebacterium xerosis
Method: as §1, §2, §3

Pityrosporum ovale = test: as above; type: cell-based; conditions: Malassezia furfur
Method: as §1, §2, §3

Propionibacterium acnes = test: as above; type: cell-based; conditions: Cutibacterium acnes
Method: as §1, §2, §3

Staphylococcus aureus = test: as above; type: cell-based
Method: as §1, §2, §3

Staphylococcus epidermis = test: as above; type: cell-based
Method: as §1, §2, §3

[2] = cited from earlier work
[3] = Pityrosporum ovale, agar dilution, read-out: MIC
[4] = Propionibacterium acnes, agar dilution, read-out: MIC
[5] = Staphylococcus epidermis, agar dilution, read-out: MIC

MIC (Aspergillus niger; agar dilution, read-out: MIC) [µg/mL] | MIC (Corynebacterium xerosis; agar dilution, read-out: MIC) [µg/mL] | MIC (Pityrosporum ovale; [3]) [µg/mL] | MIC (Propionibacterium acnes; [4]) [µg/mL] | MIC (Staphylococcus aureus; agar dilution, read-out: MIC) [µg/mL] | MIC (Staphylococcus epidermis; [5]) [µg/mL] | Compound | average % of reduction in the unpleasantness of the odor (T18 h, T24 h) ([1]; 1 mg/ml of sweat) [%] | average % of reduction in the odor intensity (T18 h, T24 h) ([1]; 1 mg/ml of sweat) [%] | average % of reduction in the unpleasantness of the odor (T18 h, T24 h) ([1]; 2 mg/ml of sweat) [%] | average % of reduction in the odor intensity (T18 h, T24 h) ([1]; 2 mg/ml of sweat) [%] | deodorant efficacy (reduction in the intensity and unpleasantness of the odor), in words [1] | selectivity of bactericidal activity, in words (Corynebacterium xerosis; less active than Resveratrol on all strains except Corynebacterium xerosis) | MIC (Aspergillus niger) [µg/mL] | MIC (Corynebacterium xerosis) [µg/mL] | MIC (Pityrosporum ovale) [µg/mL] | MIC (Propionibacterium acnes) [µg/mL] | MIC (Staphylococcus aureus) [µg/mL] | MIC (Staphylococcus epidermis; Staphylococcus) [µg/mL] | solubility in water, in words [2]
400 (≈ 1880 µM) | 6 (≈ 28.3 µM) | > 400 | 200 (≈ 942 µM) | 200 (≈ 942 µM) | 400 (≈ 1880 µM) | Oc1cc(O)cc(C=Cc2ccccc2)c1 [Pinosylvine, 3,5-dihydroxystilbene] | −33 | −77 | −40 | −89 | very large reduction | exerted selectively |  |  |  |  |  |  | 
 |  |  |  |  |  | Oc1cc(Cl)ccc1Oc1ccc(Cl)cc1Cl [Triclosan, 2,4,4′-trichloro-2′-hydroxydiphenyl ether] | −26 | −64 | −26 | −64 |  |  | 18.1 (≈ 62.5 µM) | 2.3 (≈ 7.94 µM) | > 144 | 2.3 (≈ 7.94 µM) | 0.1 (≈ 0.345 µM) | 2.3 (≈ 7.94 µM) | insoluble
 |  |  |  |  |  | Oc1ccc(C=Cc2ccccc2)cc1 [4-Hydroxystilbene, 4-hydroxystilbene] | −3 | −18 | −10 | −21 | highly insufficient efficacy |  |  |  |  |  |  |  | 
> 115 | 14 (≈ 61.3 µM) | > 115 | 29 (≈ 127 µM) | 72 (≈ 315 µM) | 72 (≈ 315 µM) | Oc1ccc(/C=C/c2cc(O)cc(O)c2)cc1 [Resveratrol, 3,5,4′-stilbene] |  |  |  |  |  |  |  |  |  |  |  |  | 
